Literature values in patent US20090078254A1, “Anesthetic Agent Recovery” (priority 2004, published 2009).
Like-named read-outs stand apart in the source and are kept apart here.

How the values were obtained:
[1] = test system: population moving in response to pain; settings: for MAC (Minimum Alveolar Concentration of gas that prevents 50% of population from moving in response to pain): adding 50% MAC N2O drops MAC value of agent by 50%
[2] = in vitro and in vivo studies
[3] = not given; remark: listed apart in the source
[4] = not given; remark: listed apart in the source
[5] = produces inorganic fluoride

SMILES	Liver damage (byproducts of reductive metabolism)	Malignant hyperthermia (in vivo)	MAC (Minimum Alveolar Concentration of gas that prevents 50% of population from moving in response to pain) [1]	Potency relative to ISOFLURANE ([1]; fraction of isoflurane potency)	Compound stability [2]	Stability In Moist Soda Lime ([3]; 40° C.)	Stability In Moist Soda Lime ([3]; 60° C.)	Stability In Moist Soda Lime ([3]; 80° C.)	SVP@18° C. [4] [mm Hg]	SVP@20° C. [4] [mm Hg]	SVP@22° C. [4] [mm Hg]	SVP@24° C. [4] [mm Hg]	SVP@26° C. [4] [mm Hg]	saturated vapor pressure ([4]; room temperature) [atm.]	Stability in the presence of standard CO2 absorbents ([3]; soda lime, baralime)	metabolism [5] [%]
FC(F)(F)C(Cl)Br (stereo not drawn) [HALOTHANE]	can cause liver damage	potential to cause malignant hyperthermia	–	–	–	–	–	–	–	–	–	–	–	–	–	–
FC(F)OC(F)C(F)(F)F (stereo not drawn) [DESFLURANE]	–	–	5-8%	about ⅕	extremely stable	Stable	Stable	Sl. Unstable	653	700	750	804	860	~1.0	–	–
FC(F)OC(Cl)C(F)(F)F (stereo not drawn) [ISOFLURANE]	–	–	1-1.6%	–	–	Stable	Stable	Stable	219	240	262	286	312	–	–	–
FCOC(C(F)(F)F)C(F)(F)F [SEVOFLURANE]	–	–	1.5-2.5%	–	–	Unstable	Unstable	Unstable	–	157	–	–	–	–	unstable	5
